Values joined by “and” are separate entries in the source; they are usually repeats but may differ in a detail not shown here. Equal entries are not always repeated. Where two headings read alike, the source gives them in different places.
Tests used:
[1] = test system: contraction of bronchial smooth muscle induced by histamine; assay: By-pass-airflow pressure, bronchial smooth muscle contraction induced by histamine; format: in vivo, guinea pig
Method: The animals were divided as saline, BDM, and aminophylline groups. Each animal was anesthetized with pentobarbital (30 mg/kg, I.P.), the trachea was intubated and connected to respirator. Tidal volume and frequency of the respirator were adjusted to 6˜10 ml and 60˜70 breath/min. respectively.
A small hole on chest wall of the animal was made, resulting in pneumothorax to inhibit spontaneous respiration of the animal. A modified device was used for measuring by-pass-airflow pressure of the airway, reflecting alteration in airway resistance, therefore evaluating status of bronchial smooth muscle contraction induced by histamine. The by-pass-airflow pressures were measured before and at 10, 20, 30, 40, 50, and 60 min after administration of histamine (5˜10 μg, I.P.) as control values. […] Changes in by-pass-airflow pressure caused by histamine before and after saline, BDM, or aminophylline were compared.
A percentage of changes in the airflow pressures before and after administration of the histamine at different time points, defined as the change rate, was calculated according to formula 1 below: Change rate (%)=(PA−PB)/PB×100% (1)
where PA is the airflow pressure after histamine, PB is the pressure before histamine. Values were expressed as mean±SD, paired or group “t” test was used upon the requirement for the statistical analysis. The results were considered significant when p<0.05.

[2] = test system: isolated colon tissues from guinea pigs; assay: Isolated colon smooth muscle contraction induced by BaCl2; design: species or system guinea pig
Text: To investigate this effect, 14 guinea pigs (provided by the Center of Experimental Animals, First Military Medical University, Guangzhou, China, certificate No. 99A047) with body weight of 240±20 g were used for the study. Following sacrifice of the animal by cervical dislocation, the colon was isolated within Botting solution, a segment of the colon in 2 cm length was taken to mount on the equipment—one end connected to a force transducer, the other end fixed at the bottom of the organ water-bath (DC-001 Organ Bath, made in Nanjin, China) containing oxygenated nutritious solution at 37° C.
Group “t” test was then made. Significance is considered to be established when P<0.05
The animals were divided as test group and control (placebo) group.
Where Fc is force of the smooth muscle contraction.
Paired group “t” test was made to compare contraction force after BDM and distilled water to determine whether there is a significant difference between the two groups.

[3] = test system: hypertension induced by aramine; assay: Aramine-induced hypertension, preventive test; format: in vivo, SD rats
Method: (§1) Eighteen (18) SD rats (provided by the Center of Experimental Animals, First Military Medical University, Guang Zhou, China, Certificate No. 99A046) with body weight of 200–250 g were used for the study. The animal was anesthetized with urethane (1.4 g/kg, I.P.), then the main cervical artery was exposed and cannulated, blood pressure was monitored during the experiment. After a 30-minute stabilization period after the operation, normal blood pressure curves were recorded.

[4] = test system: hypertension induced by aramine; assay: Aramine-induced hypertension, curative test; format: in vivo, SD rats
Method: as §1

[5] = test system: convulsion induced by strychnine; format: in vivo, NIH mice; settings: for Convulsion / The latent period / Convulsion-Death time / Death: n=12; for The latent period / Convulsion-Death time: mean±SD; for Convulsion-Death time: P<0.01 vs control
Method: To investigate the effect, 36 mice (provided by the Center of Experimental Animals, Provincial Health Department, Guangdong, China, Certificate No. 99A030) were used for the study, the animals were grouped as placebo, preventing, and treatment groups. Muscle convulsion was induced with injection of strychnine (1.5 mg/kg I.P., injection product of 2 mg/ml, He Feng Pharmaceutical Co., Shanghai, China, Lot. No. 990701), the beginning and lasting time of the convulsion were recorded.
Half male and female healthy NIH mice with body weight of 20±2 g were selected for the study. The animals were randomly divided into three groups as protective, curative, and control (saline). […] In the control group, saline (20 ml/kg, I.P.) was administered 0.5 h before the strychnine. Immediately following the injection of strychnine, convulsion latent period and the time from beginning of convulsion to death of the animal were recorded. […] (see Table 7).

[6] = after drug 10 ml/kg I.P., 10 min after histamine
[7] = after drug 10 ml/kg I.P., 20 min after histamine
[8] = after drug 10 ml/kg I.P., 30 min after histamine
[9] = after drug 10 ml/kg I.P., 40 min after histamine
[10] = after drug 10 ml/kg I.P., 50 min after histamine
[11] = after drug 10 ml/kg I.P., 60 min after histamine
[12] = before drug administration, 10 min after histamine
[13] = before drug administration, 20 min after histamine
[14] = before drug administration, 30 min after histamine
[15] = before drug administration, 40 min after histamine
[16] = before drug administration, 50 min after histamine
[17] = before drug administration, 60 min after histamine
[18] = BDM 0.2 M, 10 ml/kg, I.P. after aramine
[19] = control fluctuating within ±15 mmHg
[20] = curative: BDM immediately after strychnine
[21] = preventive: BDM 0.5 h prior to strychnine

CC(=O)C(C)=NO [BDM, 2,3-butanedione monoxime]
by-pass-airflow pressure, A, B. Hist ([1]; after drug 10 ml/kg I.P. (BDM 0.2M, aminophylline 1.25%), before histamine): 3.86 ± 0.23 Kpa | by-pass-airflow pressure, A, Hist 10 min. [1, 6]: 3.42 ± 0.21 Kpa | changing rate of by-pass-airflow pressure, A, Hist 10 min. [1, 6]: −11.37% | by-pass-airflow pressure, A, Hist 20 min. [1, 7]: 3.54 ± 0.21 Kpa | changing rate of by-pass-airflow pressure, A, Hist 20 min. [1, 7]: −8.22% | by-pass-airflow pressure, A, Hist 30 min. [1, 8]: 3.56 ± 0.27 Kpa | changing rate of by-pass-airflow pressure, A, Hist 30 min. [1, 8]: −7.80% | by-pass-airflow pressure, A, Hist 40 min. [1, 9]: 3.60 ± 0.28 Kpa | changing rate of by-pass-airflow pressure, A, Hist 40 min. [1, 9]: −6.77% | by-pass-airflow pressure, A, Hist 50 min. [1, 10]: 3.62 ± 0.29 Kpa | changing rate of by-pass-airflow pressure, A, Hist 50 min. [1, 10]: −6.25% | by-pass-airflow pressure, A, Hist 60 min. [1, 11]: 3.66 ± 0.26 Kpa | changing rate of by-pass-airflow pressure, A, Hist 60 min. [1, 11]: −5.11% | histamine-induced increase in the airflow pressure ([1]; at 10, 20, 30, 40, and 50 min after administration, p<0.01 or p<0.05): significantly reduce | by-pass-airflow pressure, B, Hist 10 min. [1, 12]: 3.67 ± 0.16 Kpa | changing rate of by-pass-airflow pressure, B, Hist 10 min. [1, 12]: 2.13% | by-pass-airflow pressure, B, Hist 20 min. [1, 13]: 3.76 ± 0.32 Kpa | changing rate of by-pass-airflow pressure, B, Hist 20 min. [1, 13]: 4.49% | by-pass-airflow pressure, B, Hist 30 min. [1, 14]: 3.72 ± 0.21 Kpa | changing rate of by-pass-airflow pressure, B, Hist 30 min. [1, 14]: 3.52% | by-pass-airflow pressure, B, Hist 40 min. [1, 15]: 3.72 ± 0.18 Kpa | changing rate of by-pass-airflow pressure, B, Hist 40 min. [1, 15]: 3.56% | by-pass-airflow pressure, B, Hist 50 min. [1, 16]: 3.67 ± 0.23 Kpa | changing rate of by-pass-airflow pressure, B, Hist 50 min. [1, 16]: 2.06% | by-pass-airflow pressure, B, Hist 60 min. [1, 17]: 3.68 ± 0.11 Kpa | changing rate of by-pass-airflow pressure, B, Hist 60 min. [1, 17]: 2.54% | by-pass-airflow pressure, B, B. Hist ([1]; before drug administration, before histamine): 3.60 ± 0.26 Kpa | changing rate of by-pass-airflow pressure, D, Hist 10 min. ([1]; difference A minus B, 10 min after histamine): −13.50% | changing rate of by-pass-airflow pressure, D, Hist 20 min. ([1]; difference A minus B, 20 min after histamine): −12.72% | changing rate of by-pass-airflow pressure, D, Hist 30 min. ([1]; difference A minus B, 30 min after histamine): −11.33% | changing rate of by-pass-airflow pressure, D, Hist 40 min. ([1]; difference A minus B, 40 min after histamine): −10.34% | changing rate of by-pass-airflow pressure, D, Hist 50 min. ([1]; difference A minus B, 50 min after histamine): −8.31% | changing rate of by-pass-airflow pressure, D, Hist 60 min. ([1]; difference A minus B, 60 min after histamine): −7.65% | Contraction force, After ([2]; BaCl2 0.67 g/L, 10 min after BDM 0.2M, 20 ml/L nutritious sol., single preparations): 1.70 g and 1.35 g and 1.45 g and 1.75 g and 2.20 g | Contraction force, Before ([2]; BaCl2 0.67 g/L, before BDM, single colon preparations of the test group): 2.35 g and 2.30 g and 2.45 g and 2.70 g and 2.90 g | Contraction Rate ([2]; force after / before BDM 0.2M, 20 ml/L, single preparations): 72.3% and 58.7% and 61.7% and 76.1% and 69.4% and 64.8% and 75.9% | Diastolic pressure 2 minutes after BDM administration ([3]; BDM 0.2 M, 10 ml/kg, I.P.): 39.7 ± 6.4^★★ mmHg | Diastolic pressure 5 minutes after BDM administration ([3]; BDM 0.2 M, 10 ml/kg, I.P.): 39.0 ± 8.7^★★ mmHg | Diastolic pressure 10 minutes after BDM administration ([3]; BDM 0.2 M, 10 ml/kg, I.P.): 43.0 ± 8.5^★★ mmHg | Systolic pressure 2 minutes after BDM administration ([3]; BDM 0.2 M, 10 ml/kg, I.P.): 88.0 ± 5.2^★★ mmHg | Systolic pressure 5 minutes after BDM administration ([3]; BDM 0.2 M, 10 ml/kg, I.P.): 84.0 ± 6.7^★★ mmHg | Systolic pressure 10 minutes after BDM administration ([3]; BDM 0.2 M, 10 ml/kg, I.P.): 88.2 ± 7.7^★★ mmHg | Diastolic pressure 2 minutes after aramine administration ([3]; BDM given before aramine): 76.2 ± 21.5^★★ mmHg | Diastolic pressure 5 minutes after aramine administration ([3]; BDM given before aramine): 76.5 ± 11.9^★★ mmHg | Diastolic pressure 10 minutes after aramine administration ([3]; BDM given before aramine): 77.0 ± 22.4^★★ mmHg | Systolic pressure 5 minutes after aramine administration ([3]; BDM given before aramine): 127.5 ± 16.1^★★ mmHg | Systolic pressure 10 minutes after aramine administration ([3]; BDM given before aramine): 127.7 ± 17.3^★★ mmHg | Systolic pressure 2 minutes after aramine administration ([3]; BDM given before aramine 30 μg/ml, 0.4 ml/min I.V.): 126.3 ± 16.1^★★ mmHg | Diastolic pressure, Blood Pressure before ([3]; baseline, mean±SD, n=6–7): 68.7 ± 8.8 mmHg | Systolic pressure, Blood Pressure before ([3]; baseline, mean±SD, n=6–7): 117.3 ± 3.2 mmHg | Diastolic blood pressure following aramine administration in BDM group ([3]; control about 120): ~75 mmHg | Systolic blood pressure following aramine administration in BDM group ([3]; control about 185): about 125 mmHg | Diastolic blood pressure after administration of BDM ([3]; down from 68, approximately): ~40 mmHg | Systolic blood pressure after administration of BDM ([3]; down from 117, approximately): ~84 mmHg | Diastolic pressure 2 min. after BDM administration [4, 18]: 73.8 ± 4.9^★★ mmHg | Diastolic pressure 5 min. after BDM administration [4, 18]: 77.0 ± 9.1^★★ mmHg | Diastolic pressure 10 min. after BDM administration [4, 18]: 76.3 ± 5.2^★★ mmHg | Systolic pressure 2 min. after BDM administration [4, 18]: 123.7 ± 6.0^★★ mmHg | Systolic pressure 5 min. after BDM administration [4, 18]: 128.3 ± 5.2^★★ mmHg | Systolic pressure 10 min. after BDM administration [4, 18]: 130.5 ± 4.2^★★ mmHg | Diastolic pressure, Blood Pressure before ([4]; baseline, mean±SD, n=6–7): 74.0 ± 15.4 mmHg | Systolic pressure, Blood Pressure before ([4]; baseline, mean±SD, n=6–7): 123.3 ± 10.1 mmHg | Diastolic pressure 2 min. after aramin administration ([4]; before BDM): 121.5 ± 5.5 mmHg | Diastolic pressure 5 min. after aramin administration ([4]; before BDM): 122.2 ± 5.1 mmHg | Diastolic pressure 10 min. after aramin administration ([4]; before BDM): 117.7 ± 9.5 mmHg | Systolic pressure 2 min. after aramin administration ([4]; before BDM): 182.7 ± 6.0 mmHg | Systolic pressure 5 min. after aramin administration ([4]; before BDM): 183.5 ± 5.5 mmHg | Systolic pressure 10 min. after aramin administration ([4]; before BDM): 181.8 ± 6.4 mmHg | Average decrease of diastolic blood pressure after BDM administration [4, 19]: 42 mmHg | Average decrease of systolic blood pressure after BDM administration [4, 19]: 54 mmHg | Convulsion ([5]; curative: BDM 0.2M, 20 ml/kg I.P. immediately after strychnine 1.5 mg/kg I.P.): 100% | The latent period [5, 20]: 134.2 ± 31.5 s | Convulsion-Death time [5, 20]: 538.3±169.3 s and 538.3 ± 169.3^★★ s | Death [5, 20]: 100% | Behaviour of the animals after administration of BDM ([5]; mice, BDM 0.2M, 20 ml/kg, I.P.): reducing activities, difficulties in action and toddling | Convulsion ([5]; preventive: BDM 0.2M, 20 ml/kg I.P. 0.5 h prior to strychnine 1.5 mg/kg I.P.): 100% | The latent period [5, 21]: 183.8 ± 32.6 s | Convulsion-Death time [5, 21]: 496.3±285.3 s and 496.3 ± 285.3^★★ s | Death [5, 21]: 100%

Source: patent US7148380B2, “Bio-energy muscle relaxants” (priority 2000, dated 2006)
